In brackets after ≈: the same amount, converted by molar mass. Several values for one entry are separate records, joined by “and”; a condition that tells them apart may be missing. Identical values can stand only once.
What was measured:
[1] = test system: C. auris; settings: cited from earlier work
[2] = test system: R. oryzae preformed biofilm; assay: Preformed biofilm assay; format: cell-based, Rhizopus oryzae; settings: for Selectivity Index (SI), Preformed Biofilm: R. oryzae, based on biofilm viability parameter
Description: (§1) For the preformed biofilm assay, cells were cultured as described above in the absence of the compounds. […] An additional incubation of 24 h at 37 °C was performed to evaluate the anti-biofilm activity. Evaluation of both biofilm formation and preformed biofilms was performed using three parameters as previously described. Crystal violet, safranin and XTT assays were used to analyze the overall biomass, extracellular matrix and metabolic activity, respectively.

[3] = test system: S. schenckii; set-up: method as in PMID 36294569; settings: cited from earlier work
[4] = test system: Cryptococcus species; settings: cited from earlier work
[5] = test system: R. oryzae UCP1295; assay: Antifungal drug synergy assay, checkerboard method (FICI); format: cell-based, Rhizopus oryzae; settings: Rhizopus arrhizus, UCP1295, 48 h; drug alone; read-out: MIC50 Alone
Description: Synergistic interactions were evaluated using the checkerboard method according to EUCAST guidelines (EUCAST 2008). R. oryzae conidia (2 × 10^5/mL) were grown in 96-well plates containing supplemented RPMI in the presence of the following selected compounds: […] An inhibition of at least 50% was defined as the cut-off for minimum inhibitory concentration (MIC). Interactions were determined by the fractional inhibitory concentration index (FICI), which was calculated using the following formula: (MIC combined/MIC drug A alone) + (MIC combined/MIC drug B alone). […] The Bliss independence model calculation was performed according to […] colleagues and Zhao and colleagues. The following formula was used to assess drug interaction: […] The results were classified as follows: synergistic effect when Eobs > Eexp; indifference when Eobs = Eexp; antagonistic effect when Eobs < Eexp.

[6] = test system: R. stolonifer; assay: Antifungal susceptibility testing (broth microdilution, MIC and MFC); format: cell-based, Rhizopus stolonifer; settings: for Selectivity Index (SI), Planktonic Cell: R. stolonifer, from CC50 and MIC50 of planktonic cells; for MIC50 / MFC: Rhizopus stolonifer, 48 h; for MIC50: lowest concentration that inhibits 50% of fungal growth; for MFC: subculture in drug-free medium
Description: The susceptibility of the Rhizopus species to MMV396785 (alexidine), MMV1580844, MMV642550 and MMV019724 was determined using the broth microdilution method, according to EUCAST protocols, with modifications. Posaconazole and amphotericin B were also used as reference antifungal drugs because they are commonly used for the treatment of mucormycosis. […] A standardized suspension of conidia (2 × 10^5/mL) was added to the wells and incubated for 48 h at 37 °C, in a 5% CO2 atmosphere. Fungal growth was analyzed via spectrophotometry readings at 600 nm and cell viability was assessed using the XTT reduction assay. Minimum inhibitory concentration (MIC) of each compound was defined as the lowest concentration that inhibits 50% of fungal growth, because these fungi are highly resistant to antifungal drugs and a reduction in half of their growth is relevant. […] MFC values were defined as the lowest drug concentration able to arrest fungal growth.

[7] = test system: A549 cell line; set-up: method as in PMID 32560115; settings: cited from earlier work
[8] = test system: S. brasiliensis; set-up: method as in PMID 36294569; settings: cited from earlier work
[9] = test system: R. oryzae cells; assay: Analysis of fungal cell alterations with fluorescent staining; format: cell-based, Rhizopus oryzae; settings: ½× MIC50, 48 h
Description: Alterations of R. oryzae cells caused by alexidine, MMV1580844, MMV642550 and MMV019724 were analyzed using fluorescent staining. Chitin, nucleic acid, oxidative stress, mitochondrial membrane potential and neutral lipid content were evaluated using calcofluor white (Sigma-Aldrich, MO, USA), Sytox Blue (ThermoFisher, Waltham, MA, USA), 2′,7′–dichlorofluorescein diacetate (DCFH-DA) (Sigma-Aldrich, MO, USA), JC-1 probe (ThermoFisher, Waltham, MA, USA) and Nile Red (Sigma-Aldrich, MO, USA), respectively. […] Cells were stained with 25 μg/mL of calcofluor white, 20 μM of Sytox Blue, 50 μg/mL of DCFH-DA, 10 μg/mL of JC-1 or 20 μg/mL of Nile Red, all of them for 1 h at 37 °C in the dark. Samples were washed three times to remove residual dye and suspended in PBS. Fluorescence intensity was measured using the SpectraMax 340 microplate reader (Molecular Devices, San José, CA, USA) under the following conditions: calcofluor white at 350 nm (excitation) and 432 nm (emission); Sytox Blue at 444 nm (excitation) and 480 nm (emission); DCFH-DA at 492 nm (excitation) and 517 nm (emission); JC-1 at 475 nm (excitation) and 529 nm (green fluorescence) or 590 nm (red fluorescence) for the calculation of the red/green fluorescence intensity; and Nile Red at 550 nm (excitation) and 635 nm (emission).

[10] = test system: R. oryzae, R. microsporus and R. stolonifer biofilm formation; assay: Biofilm formation assay, stated over the three species; format: cell-based, Rhizopus species
Description: (§2) Biofilm formation assay was performed according to Rollin-Pinheiro and colleagues. Biofilms were grown on the surface of sterile polystyrene microplates (96-well). Briefly, serial dilutions of selected compounds were prepared in RPMI 1640 medium (8–¼× MIC) and deposited in 100 µL aliquots in microplate wells. Subsequently, 100 µL containing 10^5 Rhizopus conidia in RPMI 1640 medium was added to each well and incubated for 48 h at 37 °C.
as §1

[11] = test system: A549 cells; set-up: method as in PMID 30381356; settings: cited from earlier work
[12] = test system: R. microsporus biofilm; assay: Biofilm formation assay; format: cell-based, Rhizopus microsporus; settings: at MIC
Description: as §2, §1

[13] = test system: HUVEC; set-up: method as in PMID 30381356; settings: cited from earlier work
[14] = test system: R. oryzae biofilm; assay: Biofilm formation assay; format: cell-based, Rhizopus oryzae; settings: at MIC
Description: as §2, §1

[15] = test system: R. stolonifer biofilm; assay: Biofilm formation assay; format: cell-based, Rhizopus stolonifer
Description: as §2, §1

[16] = test system: Staphylococcus aureus, Balamuthia mandrillaris, C. albicans, C. glabrata and C. auris; set-up: method as in PMID 23375226, PMID 24568657, PMID 32560115, PMID 22347365; settings: for all of the listed species; cited from earlier work

Structure (SMILES): Oc1c(C(Nc2nc3ccccc3s2)c2ccc(OC(F)F)cc2)ccc2cccnc12 (stereo not shown) [MMV019724]
- concentration able to inhibit 90% of growth [1]: 2.5 µM
- Selectivity Index (SI), Preformed Biofilm [2]: >10
- concentration that inhibits 50% [3]: 1 µM
- concentration able to inhibit 90% of growth [4]: 5 µM
- MIC [5]: 0.63 µM
- Selectivity Index (SI), Planktonic Cell [6]: >40
- MIC50 [6]: 1.25 µM (≈ 0.562 µg/mL)
- MFC [6]: > 20 µM
- IC50 [7]: 6.2 µM
- concentration that inhibits 50% [8]: 0.25 µM
- chitin content (calcofluor white) [9]: lower levels
- mitochondrial membrane potential (JC-1) [9]: mitochondrial alterations
- neutral lipids (Nile Red) [9]: lower levels

Structure (SMILES): CCCCC(CC)CNC(=N)NC(=N)NCCCCCCNC(=N)NC(=N)NCC(CC)CCCC (stereo not shown) [MMV396785, Alexidine, reference compound]
- inhibition of biofilm formation (total biomass, matrix and viability) [10]: ~100%
- concentration that damaged cells [11]: 14.7 µg/mL and 28.89 µM
- biofilm biomass, extracellular matrix and viability decreased to [12]: 25%
- Selectivity Index (SI), Preformed Biofilm ([2]; listed as Alexidina MMV396785): >20
- concentration giving significant decrease in biofilm parameters ([2]; preformed biofilm, 24 h treatment): 2 × MIC
- concentration that damaged cells [13]: 14.7 µg/mL and 28.89 µM
- MIC [5]: 1.25 µM
- Selectivity Index (SI), Planktonic Cell ([6]; listed as Alexidina MMV396785): >79.4
- MIC50 [6]: 0.63 µM (≈ 0.321 µg/mL)
- MFC [6]: 10 µM (≈ 5.09 µg/mL)
- biofilm biomass, extracellular matrix and viability decreased to [14]: 25%
- DNA content (Sytox blue) [9]: reduction
- chitin content (calcofluor white) [9]: reduction
- mitochondrial membrane potential (JC-1) [9]: did not affect
- neutral lipids (Nile Red) [9]: reduction
- concentration giving reduction in biofilm parameters [15]: ≥ 2 × MIC

Structure (SMILES): CCc1nc(N)nc(N)c1C#CC(C)c1cc(OC)cc(-c2ccncc2)c1 (stereo not shown) [MMV1580844]
- MIC [16]: lower than 100 nM
- MIC [5]: 0.08 µM
- Selectivity Index (SI), Planktonic Cell [6]: >625
- MIC50 [6]: 0.08 µM (≈ 0.0299 µg/mL)
- MFC [6]: > 20 µM
- IC50 [7]: > 10 µM
- mitochondrial membrane potential (JC-1) [9]: depolarization of mitochondrial membranes
- oxidative stress, ROS (DCFH-DA) [9]: induced oxidative stress

Source: PMC9959553, “Promising Antifungal Molecules against Mucormycosis Agents Identified from Pandemic Response Box®: In Vitro and In Silico Analyses” (Journal of Fungi, 2023)
